Laboratory results: ChEMBL document CHEMBL3045823, “Synthesis and Herbicidal Activities of the O-Syn and O-Anti Benzyl Epoxycyclopentyl Ethers” (2004)
The source made the active and inactive calls. No cut-off for these calls is given here.

Experiments:
Echinochloa oryzicola [1] = assay: Herbicide activity against Echinochloa oryzicola assessed as inhibition of root growth compound treated to seeds measured after 7 days; format: functional
Echinochloa oryzicola [2] = assay: Herbicide activity against Echinochloa oryzicola assessed as inhibition of growth of first sheath compound treated to seeds measured after 7 days; format: functional
Echinochloa oryzicola [3] = assay: Herbicide activity against Echinochloa oryzicola assessed as inhibition of root growth compound treated at 3 ppm to seeds measured after 7 days; format: functional, organism-based
Echinochloa oryzicola [4] = assay: Herbicide activity against Echinochloa oryzicola assessed as inhibition of shoot growth compound treated at 3 ppm to seeds measured after 7 days; format: functional, organism-based

Compound | I50 (Echinochloa oryzicola [1]) [ppm] | growth inhibition (GI) (Echinochloa oryzicola [2]) | I50 (Echinochloa oryzicola [2]) [ppm] | growth inhibition (GI) (Echinochloa oryzicola [3]) | growth inhibition (GI) (Echinochloa oryzicola [4])
CCCCC[C@]12O[C@H]1CC[C@H]2OCc1ccccc1C (racemic) | 0.25 | Active | – | – | –
CCCCC[C@]12O[C@H]1CC[C@H]2OCc1ccccc1 (racemic) | 0.03 | – | 0.2 | – | –
CCCCC[C@@]12O[C@@H]1CC[C@H]2OCc1ccccc1Cl (racemic) | – | Active | – | inactive | inactive
CCCCC[C@@]12O[C@@H]1CC[C@H]2OCc1ccccc1 (racemic) | – | Active | – | inactive | inactive
CCCCC[C@]12O[C@H]1CC[C@H]2OCc1ccccc1Cl (racemic) | 0.5 | Active | – | – | –
CCCCC[C@@]12O[C@@H]1CC[C@H]2OCc1ccccc1F (racemic) | – | Active | – | inactive | inactive
CCCCC[C@@]12O[C@@H]1CC[C@H]2OCc1ccccc1C (racemic) | – | Active | – | inactive | inactive
CCCCC[C@]12O[C@H]1CC[C@H]2OCc1ccccc1F (racemic) | 0.03 | – | 0.2 | – | –
